Data set [1] concerns human leptin. Nature of the data set: Human leptin in mouse plasma (ELISA) after subcutaneous injection of encapsulated leptin mRNA. The class given is in vivo. The settings on record: hLeptin, 0.2 mpk.
In data set [2] the test system is mouse Erythropoietin. Nature of the data set: Mouse EPO ELISA after IV injection of encapsulated mEPO mRNA. It is filed as in vivo. As to conditions: 0.2 mpk, ob/ob. How it is done: A rat anti-mouse Erythropoietin antibody is coated on 384-well white microtiter plates overnight, then blocked for assay. Then, plasma samples are diluted in a casein-based sample diluent and incubated on the plate with buffer controls and mouse EPO standards. The plate is then washed to remove unbound material. A biotinylated rat anti-mouse Erythropoietin antibody is then added to the plate to detect mouse EPO bound by the capture antibody. The plate is washed again and a streptavidin-conjugated horseradish peroxidase reagent is incubated on the plate. A third wash step is performed and a chemiluminescent reagent is added to the plate and immediately read by a capable plate reader using all wavelengths and a 50 millisecond integration time. Unknown samples are interpolated off the mouse EPO standard curve.

The test system of data set [3] is human leptin. Nature of the data set: Human leptin in mouse plasma (ELISA) after IV tail vein injection of encapsulated leptin mRNA. The class given is in vivo. As to conditions: hLeptin. How it is done:
Human leptin in mouse plasma was measured by ELISA. Antibodies purchased from the R&D Systems duoset (Cat #DY398E, part #840279 for capture antibody and part #840280 for detection antibody) were reconstituted using PBS and titered, again using PBS. The capture antibody was coated at 4 ug/ml in 30 ul/well on a white Nunc® Maxisorp 384 well plate (Cat #460372). After an overnight incubation at room temperature the capture antibody was aspirated and the plate blocked for 2 hours at room temperature with 90 ul/well of KPL milk blocker (Cat #50-82-00). Once the incubation was completed the plate was aspirated and recombinant standards and samples were added to the plate at 30 ul/well for 2 hours at 37° C. while shaking at 600 rpm. Sample/standard dilutions were made using casein sample diluent. Washing/aspiration 3 times with 100 ul/well followed, using Teknova plate wash solution (Cat #P1192). Next, detection antibody was diluted using casein detection antibody diluent to 12.5 ng/ml and added at 30 ul/well for 2 hours room temperature. After this incubation, the plate was washed again and a solution of poly-streptavidin-HRP (Cat #21140) at a 1:1250 dilution in HRP dilution buffer was added to each well (30 ul/well) and incubated for 30 minutes room temperature. A final wash/aspiration removed the HRP solution and a chemiluminescent substrate was added at 30 ul/well (Cat #1859678 & 1859679). The plate was quickly read using a SpectramaxM5 plate reader with a 50 ms integration time. The dynamic range of the ELISA is from 100-2,000 […] (6.25-125 pM) of human leptin. The assay is applicable to plasma from mice, rats and cynomolgus monkeys.
Before the tail vein injection, mouse body weights were recorded and diet weighted, with mice grouped according to their body weights. Mice were prepared by warming them under a heating lamp for ˜2 minutes, with the mice about 12 inches from heat lamp. […]
On day 0, animals were weighed and sorted according to average body weight. Mice were dosed, and food intake (FI) was recorded, on each of days 1-7 and days 9, 11, and 16.

Data set [4] deals with RSV F protein. The experiment in a line: RSV immunogenicity: IgG titers after two IM immunizations with vA375 RNA expressing RSV-F in LNPs. It is filed as in vivo, BALB/c mice. As to conditions: IM days 0 and 21, two weeks after two immunizations.
Data set [5] in a line: Entrapment and RNA concentration of RSV-F replicon liposomes (Quant-iT RiboGreen). The class given is physicochemical. How it is done:
RNA was encapsulated in liposomes made essentially by the method of Geall et al. (2012) PNAS vol. 109 (36): 14604-14609, Jeffs et al. (2005) Pharmaceutical Research 22 (3):362-372 and Maurer et al. (2001) Biophysical Journal, 80: 2310-2326 The liposomes were made of 10% DSPC (zwitterionic), 40% cationic lipid, 48% cholesterol and 2% PEG-conjugated DMG (2 kDa PEG). These proportions refer to the % moles in the total liposome.
Briefly, lipids were dissolved in ethanol (2 ml), a RNA replicon was dissolved in buffer (2 ml, 100 mM sodium citrate, pH 6) and these were mixed with 2 ml of buffer followed by 1 hour of equilibration. The mixture was then dialized overnight against 1×PBS. The resulting product contained liposomes, with ˜70-95% encapsulation efficiency. For in vitro and in vivo experiments formulations were diluted to the required RNA concentration with 1×PBS.
The percentage of encapsulated RNA and RNA concentration were determined by Quant-iT RiboGreen RNA reagent kit (Invitrogen), following manufacturer's instructions. The ribosomal RNA standard provided in the kit was used to generate a standard curve. Liposomes were diluted 10× or 100× in 1×TE buffer (from kit) before addition of the dye. Separately, liposomes were diluted 10× or 100× in 1×TE buffer containing 0.5% Triton X before addition of the dye (to disrupt the liposomes and thus to assay total RNA). Thereafter an equal amount of dye was added to each solution and then ˜180 μL of each solution after dye addition was loaded in duplicate into a 96 well tissue culture plate. The fluorescence (Ex 485 nm, Em 528 nm) was read on a microplate reader. All liposome formulations were dosed in vivo based on the encapsulated amount of RNA.
(§1) A self-replicating replicon encoding RSV F protein was administered to BALB/c mice, 8 animals per group, by bilateral intramuscular vaccinations (50 μL per leg) on days 0 and 21 with the replicon (0.1 and 1 ng) formulated as liposomes with the lipids described below. All liposomes tested were composed of 40% cationic lipid, 10% DSPC, 48% cholesterol and 2% PEG-DMG with similar amounts of RNA. The liposomes were all prepared using the same technique as described above.
(§2) % entrapment (% E), Concentration of RNA (Conc), particle size measured by DLS, and polydispersity reported by DLS of LNPs prepared with different cationic lipids

Data set [6] in a line: Particle size and polydispersity by DLS of RSV-F replicon LNPs. The class given is physicochemical. How it is done: as §1, §2
Where [7] appears, read: RSV-F replicon LNP prepared for 1st IM.
Setting [8] is: RSV-F replicon LNP prepared for 2nd IM.

Turning to `CCCCCCCCCCCCC(CCOC(=O)CCCCC(COC(=O)CCCCCCC)COC(=O)CCCCCCC)OC(=O)OCCCN(CC)CC` (stereo not drawn) [Example 1, 2-(10-dodecyl-3-ethyl-8,14-dioxo-7,9,13-trioxa-3-azaoctadecan-18-yl)propane-1,3-diyl dioctanoate], the “Expression of protein following SC injection of encapsulated mRNA” value in data set [1] (C57) came to 1.2 ng/mL; in data set [1] (ob/ob) it was 16.2 ng/mL. The “Expression of protein following IV injection of encapsulated mRNA” value in data set [2] amounted to 247.6 ng/mL; in data set [3] (0.4mpk, C57) it was 66.3 ng/mL. Further, the “Immunogenicity (2wp2, log10 IgG titers)” value in data set [4] (0.1 ng vA375 RNA) amounted to 3.98 log10 IgG titers; in data set [4] (1 ng vA375 RNA), 4.22 log10 IgG titers. For the same compound, the figures for the “% E (% entrapment)” value in data set [5] (setting [7]) and in data set [5] (setting [8]) were 91.11% and 87.13%, respectively. Also, the PDI in data set [6] (setting [7]) is 0.105; in data set [6] (setting [8]) it was 0.045. Besides, the Size was found to be 139.1 nm in data set [6] (setting [7]) and 131.3 nm in data set [6] (setting [8]).
Consider `CCCCCCCCCCCCC(CCOC(=O)CCCCC(OCCCCCCCC)OCCCCCCCC)OC(=O)OCCCN(CC)CC` (stereo not drawn) [Example 16, 3-(((3-(diethylamino)propoxy)carbonyl)oxy)pentadecyl 6,6-bis(octyloxy)hexanoate], for which the “Expression of protein following SC injection of encapsulated mRNA” value in data set [1] (ob/ob) amounted to 8.4 ng/mL. The “Expression of protein following IV injection of encapsulated mRNA” value in data set [3] (0.2 mpk, ob/ob) was 21.4 ng/mL.
Turning to `CCCCCCCCCCCCC(CCOC(=O)CCCCC(OCC(CC)CCCC)OCC(CC)CCCC)OC(=O)OCCCN(CC)CC` (stereo not drawn) [Example 18, 3-(((3-(diethylamino)propoxy)carbonyl)oxy)pentadecyl 6,6-bis((2-ethylhexyl)oxy)hexanoate], the entries for the “Immunogenicity (2wp2, log10 IgG titers)” value in data set [4] (0.1 ng vA375 RNA) and in data set [4] (1 ng vA375 RNA) were 3.5 log10 IgG titers and 4.26 log10 IgG titers, respectively. Besides, the results for the “% E (% entrapment)” value in data set [5] (setting [7]) and in data set [5] (setting [8]) were 96.15% and 96.25%, respectively. Further, the results for the PDI in data set [6] (setting [7]) and in data set [6] (setting [8]) were 0.13 and 0.065, respectively. In addition, the Size in data set [6] (setting [7]) is given as 132.2 nm; in data set [6] (setting [8]), 139.8 nm.
Take `CCCCCCCCCC(=O)OCCC(CC(CCCCCCCC)CCCCCCCC)OC(=O)OCCCN(C)C` (stereo not drawn) [Example 70, 3-(((3-(dimethylamino)propoxy)carbonyl)oxy)-5-octyltridecyl decanoate]: the “Immunogenicity (2wp2, log10 IgG titers)” value in data set [4] (0.1 ng vA375 RNA) was determined as 3.90 log10 IgG titers; in data set [4] (1 ng vA375 RNA) it was 4.37 log10 IgG titers. The figures for the “% E (% entrapment)” value in data set [5] (setting [7]) and in data set [5] (setting [8]) were 90.75% and 94.24%, respectively. The results for the PDI in data set [6] (setting [7]) and in data set [6] (setting [8]) were 0.121 and 0.118, respectively. Moreover, the Size in data set [6] (setting [7]) came to 133.7 nm; in data set [6] (setting [8]) it was 141.7 nm.

These data come from patent publication US11013696B2, “Lipids and lipid compositions for the delivery of active agents” (Novartis AG, priority 2013, dated 2021).
